Experimental findings from PMC4217095 (Emerging Microbes & Infections, 2014) are described below.

This assay deals with MDk/W452(H5N8) NA (Influenza A virus, UniProt A0A088CBR8). In kind it is biochemical.

With `CCC(CC)[C@H](NC(C)=O)[C@@H]1[C@H](O)[C@@H](C(=O)O)C[C@H]1N=C(N)N` [Peramivir, peramivir], the “Sensitivity of virus to NA inhibitor (assessment of the IC50)” value is “sensitive”.

For the compound `CC(=O)N[C@H]1[C@H]([C@H](O)[C@H](O)CO)OC(C(=O)O)=C[C@@H]1N=C(N)N` [Zanamivir, zanamivir], the “Sensitivity of virus to NA inhibitor (assessment of the IC50)” value was “sensitive”.
